Assay results published in PubChem BioAssay (NCI).
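Method: 48-hour compound exposure of cells in 96-well plates, five concentrations, linear interpolation of endpoints. GI50 marks 50% less growth. TGI denotes the concentration required for complete inhibition of growth.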

Tests used:
Assay in all cases: NCI tumour cell line growth inhibition, 48 h
SN12C renal = test system: SN12C renal
OVCAR-5 ovarian = test system: OVCAR-5 ovarian
UACC-257 melanoma = test system: UACC-257 melanoma
786-0 renal = test system: 786-0 renal
HOP-62 NSCLC = test system: HOP-62 NSCLC
MALME-3M melanoma = test system: MALME-3M melanoma
SK-MEL-2 melanoma = test system: SK-MEL-2 melanoma
ACHN renal = test system: ACHN renal
UACC-62 melanoma = test system: UACC-62 melanoma

Compound | TGI (SN12C renal) [µM] | TGI (OVCAR-5 ovarian) [µM] | TGI (UACC-257 melanoma) [µM] | TGI (786-0 renal) [µM] | TGI (HOP-62 NSCLC) [µM] | TGI (MALME-3M melanoma) [µM] | TGI (SK-MEL-2 melanoma) [µM] | TGI (ACHN renal) [µM] | TGI (UACC-62 melanoma) [µM] | GI50 (SN12C renal) [µM] | GI50 (OVCAR-5 ovarian) [µM] | GI50 (UACC-257 melanoma) [µM] | GI50 (786-0 renal) [µM] | GI50 (HOP-62 NSCLC) [µM] | GI50 (MALME-3M melanoma) [µM] | GI50 (SK-MEL-2 melanoma) [µM] | GI50 (ACHN renal) [µM] | GI50 (UACC-62 melanoma) [µM]
COc1ccc2c(c1)[n+](=O)c(C(=O)C/C(=N/OCCCc1ccccc1)C(=O)NC13CC4CC(CC(C4)C1)C3)c(C)n2[O-] | > 100 | > 100 | > 100 | > 100 | > 100 | > 100 | > 100 | > 100 | > 100 |  |  |  |  |  |  |  |  | 
COc1cc2cc(Oc3ccc(NC(=O)Nc4ccc(Cl)c(C(F)(F)F)c4)cc3)c(C)nc2cc1OCCN1CCOCC1 | 56.2 | 65.2 | 4.55 | 4.15 | 4.55 | 3.27 | 4.06 | 11.6 | 3.46 | 2.56 | 4.02 | 1.57 | 1.89 | 2.05 | 1.52 | 1.65 | 2.03 | 1.36
Nc1cccc(S(=O)(=O)NCC(=O)O)c1 | > 100 | > 100 | > 100 | > 100 | > 100 | > 100 | > 100 | > 100 | > 100 |  |  |  |  |  |  |  |  | 
CC[C@@]1(c2ccccc2)C2=C(CC(C)(C)CC2=O)Nc2[nH]ncc21 | > 100 | > 100 | > 100 | > 100 | > 100 | > 100 | > 100 | > 100 | > 100 | > 100 | > 100 | > 100 | > 100 | > 100 | > 100 | > 100 | > 100 | > 100
Cc1cc(Cl)cc2c1NC(=O)C2(O)CC(=O)c1ccco1 (configuration not stated) | > 100 | > 100 | > 100 | > 100 | > 100 | > 76.1 | > 100 | > 100 | 67.5 |  |  |  |  |  |  |  |  | 
CCCn1c(=S)sc2c1nc(C)n1c(Nc3ccccc3)nnc21 | > 100 | > 100 | 36.1 | 49.2 | 23.9 | > 100 | 53.1 | > 100 | 18.9 | 4.63 | 21 | 3.36 | 4.3 | 7.15 | 2.94 | 4.64 | 5.05 | 3.09
CCCCCCCC[C@@H](O)CC(=O)N[C@@H](CC(N)=O)C(=O)N[C@@H](CCC(N)=O)C(=O)N[C@@H](CC(=O)c1cc(C)cc(O)c1C(=O)c1c(O)cccc1O)CC(C)C | 15.8 | 27.7 | 4.68 | 9.84 | 4.92 | > 100 | 8.32 | > 100 | 1.89 | 2.13 |  | 0.45 | 0.507 | 0.86 | 0.667 | 2.76 | 3.09 | 0.317
O=C(O)c1nn(-c2ccccc2-c2n[nH]c(=O)[nH]c2=O)c(=O)[nH]c1=O | > 100 | > 100 | > 100 | > 100 | > 100 | > 100 | > 100 | > 100 | > 100 |  |  |  |  |  |  |  |  | 
